Laboratory results taken from patent US20170027868A1, “PEPTIDE-[…]” (priority 2015, published 2017).
Like-named read-outs stand apart in the source and are kept apart here.

Tests used:
C26 cells [1] = assay: cells
Method: At first, C26 cells were seeded in RPMI 1640 media in 96-well plates (5000 cells/well) and were incubated at 37° C. After overnight incubation, cells were treated with different concentration of drug (1:2 serial dilutions of liposomal doxorubicin or free doxorubicin in FCS-free medium) and then incubated at 37° C. for 3 and 6 hours.
After scheduled incubation times, cells were washed with pre-warmed complete culture media and re-incubated further for 48 hours at 37° C. and then the viability of cells was determined by MTT assay; for this purpose, 20 ml of MTT (Thiazolyl Blue Tetrazolium Bromide; Sigma-Aldrich) was added to each well of the plate and was incubated for 4 hours at 37° C.
Relative cell death was calculated as follows: R=(A control−A test)/(A control−A blank) where A test and A control were the absorbance of the cells treated with the test dilutions and the culture medium (negative control). A blank was the absorbance of cell free wells.

[2] = system: HDM-2-negative NIH-3T3 cells; assay: In vitro cellular binding at 4° C., flow cytometry; format: cell-based, mouse; conditions: NIH3T3 cells, 20 μg doxorubicin/ml, 1 hour, FIG. 5A
Method: (§1) The exemplary procedure was as follows: cells were detached from cell culture dishes by using 0.05% trypsin and 0.02% EDTA (GIBCO). […] Afterward, the cells were washed three times with PBS and re-suspended in an appropriate volume of the buffer and were analyzed by flow cytometry. BD FACS Calibur equipped was used to read fluorescence signal.

HDM-2-positive C26 cells = assay: In vitro cellular binding at 4° C., flow cytometry; format: cell-based; conditions: 20 μg doxorubicin/ml, 1 hour, FIG. 5B
Method: as §1

[3] = system: HDM-2-negative NIH-3T3 cells; conditions: NIH3T3 cells, 20 μg doxorubicin/ml, 37° C., 3 hours; FIG. 6A
Method: (§2) For evaluating in vitro cellular uptake, NIH3T3 cells were seeded in complete DMEM and C26 were seeded in complete RPMI in 24-well plates (2×10^5 cells/well). […] Then, cells were washed with PBS, detached by 100 μl of trypsin-EDTA solution (Gibco, UK) and centrifuged at 1500 rpm for 5 minutes. The cells were washed with cold PBS three times and resuspended in staining buffer before analysis. […] Then 0.9 ml of an acidified isopropanol was added to each well, and the mixture was incubated overnight at 4° C. to extract the cell-associated doxorubicin. After sedimentation of the cell debris, doxorubicin concentration was measured.
(§3) Referring to FIGS. 6A and 6B, the geometric mean fluorescence intensity (MFI) of doxorubicin in cells was analyzed by using flow cytometry (FCM) in the FL2 channel.

C26 cells [4] = assay: In vitro cellular uptake at 37° C., flow cytometry; format: cell-based; conditions: 20 μg doxorubicin/ml, 3 hours, FIG. 6B
Method: as §2, §3

[5] = Bio-distribution study in tumor-bearing mice; conditions: 24 and 48 h; FIG. 8A
Method: Blood samples were collected 3, 6, and 12 hours after drug injection via retro orbital bleeding.
Animals were sacrificed at 24 and 48 h after drug administration and blood samples were drawn by heart puncture. The whole tumor, one of the kidneys, spleen, heart, lungs as well as a portion of the liver and muscle were dissected, weighted and homogenized in acidified isopropanol with zirconia beads by Mini-Beadbeater-1 (Biospec, OK). Then the blood and the homogenized tissue samples were centrifuged and the blood serum as well as the sera of tissue samples were diluted in adequate volume of acidified isopropanol and stored at 4° C. overnight for Doxorubicin extraction.
The samples were centrifuged and the supernatant was assayed for Doxorubicin concentration by measuring fluorescence at λEx/Em=480/590 nm compared with Doxorubicin calibration curves, which were prepared in the tissue and sera extracts of the control mice. The pharmacokinetic concentration of doxorubicin was shown as μg/ml of serum.

[6] = system: C-26 colon carcinoma tumor; assay: In vivo tumor-targeted therapeutic study; conditions: mice bearing C-26 tumor
Method: Tumor models were C26 colon carcinoma in BALB/c mice Female BALB/c mice 4-6 week's old and female C57BL/6 mice 6-12 weeks old were injected subcutaneously in the right flank with tumor cells.
Also tumor size was monitored three times a week for 60 days. Three dimensions of tumor (height, length and width) were measured with calipers and tumor volume was calculated via the following formula: tumor volume=(height×length×width)×0.5 cm^3. According to instructions for C26 tumor bearing animals, euthanasia was occurred when their body weight decreased (>20% loss of initial mass), their tumor was greater than 2.0 cm in one dimension or they became sick and unable to feed.
The median survival time (MST) and time to reach end point (TTE) for each mouse were calculated from the equation of the line obtained by exponential regression of the tumor growth curve. Subsequently, the percent of tumor growth delay (TGD) were calculated based on the difference between the mean TTE of treatment group (T) and the mean TTE of the control group (C) (% TGD=[(T−C)/C]×100).

[7] = single i.v. dose 15 mg/kg doxorubicin

## COc1cccc2c1C(=O)c1c(O)c3c(c(O)c1C2=O)C[C@@](O)(C(=O)CO)C[C@@H]3O[C@H]1C[C@H](N)[C@H](O)[C@H](C)O1 [Free doxorubicin, doxorubicin]
C26 cells [1]; C26, read-out: IC50 (μM ± SD), C26 cells, 3 h exposure, then 48 h re-incubation
  IC50: 0.625 ± 0.07 µM
C26 cells [1]; C26, read-out: IC50 (μM ± SD), C26 cells, 6 h exposure, then 48 h re-incubation
  IC50: 0.302 ± 0.05 µM
[2]
  cellular binding: more than other forms of drugs
HDM-2-positive C26 cells
  cellular binding: more than other forms of drugs
[3]
  cellular uptake (MFI of doxorubicin): too high
C26 cells [4]
  cellular uptake (MFI of doxorubicin): too high
[5]
  bio-distribution in serum: decreasing trend over time
[6]; 15 mg/kg, [(T−C)/C]×100 of mean TTE
  TGD (tumor growth delay): 24.42%
[6]; [7]
  MST (median survival time): 27 days
  TTE (time to reach end point): 27 days
